3 compounds from patent US20160213742A1, “COMPOSITIONS AND METHODS FOR THE TREATMENT OF FUNGAL INFECTIONS” (priority 2013, published 2016) can be followed below.

What all share (type): cell-based
Experiment [1] relates to C. albicans ATCC 90028. Here is the method:
(§1) MIC and MEC assays were run as described in Example 31 with the following exceptions. Starting solutions of all antifungal agents were prepared in 100% DMSO. Stock concentrations were made at 50× the highest final assay concentration and serially diluted 2-fold, 16 times in a 96-well PCR plate (VWR 83007-374). Candida and Aspergillus suspensions from Sabouraud dextrose agar plate cultures were prepared in 0.85% saline at 0.5 McFarland standard (˜0.1 OD530 nm). Candida suspensions were diluted 1:500 in RPMI (MP Biomedicals, cat no. 1060124; buffered with MOPS and adjusted with NaOH to pH 7.0) to a concentration of ˜0.5-2.5×10^3 CFU/mL and Aspergillus suspensions were diluted 1:50 in RPMI to 0.4-5×10^4 CFU/mL final concentration. 98 μL of each cell suspension in RPMI were added to test wells in a 96-well assay plate (Costar cat. no. 3370). A Beckman Multimek 96 liquid handling robot was used to dispense 2 μL of each 50× stock compound into the plate containing 98 μL of each strain in RPMI (2% final solvent concentration). Plates were shaken then incubated at 35° C. for 24-48 h prior to reading. MIC values were read visually at 50% growth inhibition for echinocandins (24 h) and at 100% growth inhibition for amphotericin B (48 h). MEC values (24 h) were read with the aid of a microscope at the lowest echinocandin concentration where rounded/compact hyphal morphology was observed.

Experiment [2] concerns C. glabrata ATCC 90030. Here is the method: as §1
Experiment [3] relates to C. krusei ATCC 14243. As for the experimental part:
as §1

Experiment [4] deals with C. parapsilosis ATCC 22019. As for the experimental part: as §1
The test system of another experiment is C. tropicalis ATCC 750. As for the experimental part: as §1
The test system of another experiment is A. flavus ATCC MYA-3631. Kind of experiment: MEC assay (Example 32). The conditions noted are these: MEC values (24 h), rounded/compact hyphal morphology. As for the experimental part:
as §1

Experiment [5] deals with A. fumigatus ATCC 13073. Kind of experiment: MEC assay (Example 32). The conditions noted are these: MEC values (24 h), rounded/compact hyphal morphology. Here is the method: as §1
Experiment [6] has as its system A. fumigatus MYA-3626. The experiment can be described thus: MEC assay (Example 32). The conditions noted are these: MEC values (24 h), rounded/compact hyphal morphology. As for the experimental part: as §1
The subject of experiment [7] is A. fumigatus MYA-4609. Kind of experiment: MEC assay (Example 32). The conditions noted are these: MEC values (24 h), rounded/compact hyphal morphology. Here is the method:
as §1

A further experiment has as its system A. niger ATCC 16404. The experiment can be described thus: MEC assay (Example 32). The conditions noted are these: MEC values (24 h), rounded/compact hyphal morphology. As for the experimental part: as §1
Experiment [8] deals with Neutrophils purified from human peripheral blood. Kind of experiment: Human Neutrophil Transwell Migration Assay. The conditions noted are these: 37° C., 45 minutes, % of the maximum migration possible. The procedure, abridged: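 Neutrophils (~50,000–100,000) were placed above 5-micron transwell inserts with test compound in the lower chamber and allowed to migrate 45 min at 37° C. Migrated cells were quantified by ATP luminescence; medium-only background was subtracted and values expressed as % of cells added directly to the bottom well.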

The test system of experiment [9] is C. albicans ATCC 90028. The experiment can be described thus: microbe, parasite or virus in culture. The conditions noted are these: C. albicans ATCC 90028; RPMI pH 7.0, 35° C., 24-48 hr. The procedure, abridged: (§2)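 RPMI pH 7.0 (CLSI), 2-fold serial dilutions, 1.25% DMSO final (investigational). Inoc: Candida 0.5 McF 1:100; Aspergillus ~0.2-2.5×10^4 CFU/mL. 35° C., ~24-48 hr. MIC = no visible growth; MEC = small compact hyphae vs growth control.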

Experiment [10] relates to C. glabrata ATCC 90030. Kind of experiment: microbe, parasite or virus in culture. The conditions noted are these: C. glabrata ATCC 90030; RPMI pH 7.0, 35° C., 24-48 hr. The procedure, abridged: as §2
Experiment [11] relates to C. krusei ATCC 14243. The experiment can be described thus: microbe, parasite or virus in culture. The conditions noted are these: C. krusei ATCC 14243; RPMI pH 7.0, 35° C., 24-48 hr. The method, boiled down: as §2
The subject of experiment [12] is C. parapsilosis ATCC 22019. The experiment can be described thus: microbe, parasite or virus in culture. The conditions noted are these: C. parapsilosis ATCC 22019; RPMI pH 7.0, 35° C., 24-48 hr. The method, boiled down: as §2
In a further experiment the test system is A. flavus MX 5948. Kind of experiment: MEC assay (Example 31). The conditions noted are these: RPMI pH 7.0, 35° C., 24-48 hr. The method, boiled down:
as §2

Experiment [13] deals with A. fumigatus ATCC 13073. Kind of experiment: MEC assay (Example 31). The conditions noted are these: RPMI pH 7.0, 35° C., 24-48 hr. The method, boiled down: as §2
A further experiment relates to A. fumigatus MX 5944. Kind of experiment: MEC assay (Example 31). The conditions noted are these: RPMI pH 7.0, 35° C., 24-48 hr. The procedure, abridged:
as §2

The subject of experiment [14] is A. fumigatus MYA-3626. The experiment can be described thus: MEC assay (Example 31). The conditions noted are these: RPMI pH 7.0, 35° C., 24-48 hr. The procedure, abridged: as §2
The subject of experiment [15] is A. fumigatus MYA-4609. Kind of experiment: MEC assay (Example 31). The conditions noted are these: RPMI pH 7.0, 35° C., 24-48 hr. The method, boiled down:
as §2

The mark [16] stands for this setting: C. albicans ATCC 90028, read at 50% growth inhibition for echinocandins (24 h), 100% for amphotericin B (48 h).
[17] abbreviates: C. glabrata ATCC 90030, read at 50% growth inhibition for echinocandins (24 h), 100% for amphotericin B (48 h).
Setting [18] is: C. krusei ATCC 14243, read at 50% growth inhibition for echinocandins (24 h), 100% for amphotericin B (48 h).
Setting [19] is: C. parapsilosis ATCC 22019, read at 50% growth inhibition for echinocandins (24 h), 100% for amphotericin B (48 h).
Setting [20] is: C. tropicalis ATCC 750, read at 50% growth inhibition for echinocandins (24 h), 100% for amphotericin B (48 h).

Structures are written as SMILES. Values after ≈ are worked out from the molar mass of the structure shown. Read-outs that look alike come from different tables or passages of the source. Starred links: 1 amine or outer side, 2 acyl side, 3 side chain; linkers in the order of their positions; H or OH if unused. Positions of bridges follow the written chain, without caps; N, C: chain ends. Non-standard residues stand in square brackets, D forms with d. Residues, ends and D or L forms follow the SMILES beside them. Groups on a side chain read outwards from the residue. *: point of attachment. Orn(4R-OH,5R-OCH2CH2NMe3+) = C[N+](C)(C)CCO[C@@H](N[*:3])[C@H](O)C[C@H](N[*:1])C(=O)[*:2]; pTerphenylCO(4''-OnC5H11) = CCCCCOc1ccc(-c2ccc(-c3ccc(C(=O)*)cc3)cc2)cc1; X1 = O=C([C@@H](N[*:1])[C@H](O)[C@@H](O)c1ccc(O)c(N[*:3])c1)[*:2]; Pro(3S-OH,4S-Me) = C[C@H]1CN[C@H](C(=O)O)[C@H]1O; Hyp = O=C(O)[C@@H]1C[C@@H](O)CN1; βAla = NCCC(=O)O; For = O=C*

Consider `CC[C@H](C)C[C@H](C)CCCCCCCCC(=O)N[C@H]1C[C@@H](O)[C@@H](OCCN)NC(=O)[C@@H]2[C@@H](O)CCN2C(=O)[C@H]([C@H](O)CCNC(=O)[C@H](Cc2ccccc2)NC(=O)[C@H](CC(C)C)NC(=O)[C@H](CC[S+](C)[O-])NC=O)NC(=O)[C@H]([C@H](O)[C@@H](O)c2ccc(O)cc2)NC(=O)[C@@H]2C[C@@H](O)CN2C(=O)[C@H]([C@@H](C)O)NC1=O` (stereo partly shown) [Compound 30], for which the MIC against C. albicans ATCC 90028 [1] (ATCC 90028, 24 h) is 2 µg/mL (≈ 1.31 µM); in the experiment on C. glabrata ATCC 90030 [2] (ATCC 90030, 24 h), 8 µg/mL (≈ 5.23 µM); in the experiment with C. krusei ATCC 14243 [3] (ATCC 14243, 24 h), 32 µg/mL (≈ 20.9 µM); in experiment [4] (ATCC 22019, 24 h) it was 32 µg/mL (≈ 20.9 µM); with C. tropicalis ATCC 750 (ATCC 750, 24 h), 2 µg/mL (≈ 1.31 µM). Further, the MEC came out at 0.5 µg/mL with A. flavus ATCC MYA-3631; 0.25 µg/mL with A. fumigatus ATCC 13073 [5]; 1 µg/mL with A. fumigatus MYA-3626 [6]; 0.5 µg/mL in the experiment with A. fumigatus MYA-4609 [7]; 0.5 µg/mL with A. niger ATCC 16404. The “% Neutrophil Migration” value in experiment [8] (conc 0.001 μg/mL) is recorded as 105.2%; in experiment [8] (conc 0.01 μg/mL) it was 133.6%; in experiment [8] (conc 0.1 μg/mL), 234.3%; in experiment [8] (conc 1 μg/mL), 48.2%; in experiment [8] (conc 10 μg/mL) it was 19.7%.

Turning to `CCCCCOc1ccc(-c2ccc(-c3ccc(C(=O)N[C@H]4C[C@@H](O)[C@@H](OCC[N+](C)(C)C)NC(=O)[C@@H]5[C@@H](O)[C@@H](C)CN5C(=O)[C@H]([C@@H](C)O)NC(=O)[C@H]([C@H](O)[C@@H](O)c5ccc(O)c(NC(=O)CCNC(=O)[C@H](Cc6ccccc6)NC(=O)[C@H](CC(C)C)NC(=O)[C@H](CCSC)NC=O)c5)NC(=O)[C@@H]5C[C@@H](O)CN5C(=O)[C@H]([C@@H](C)O)NC4=O)cc3)cc2)cc1.O=C[O-]` [Compound 31] ({pTerphenylCO(4''-OnC5H11)}-[Orn(4R-OH,5R-OCH2CH2NMe3+)]T[Hyp][X1]([βAla-Phe-Leu-Met-For])T[Pro(3S-OH,4S-Me)]; lactam 1-C), the MIC against C. albicans ATCC 90028 [1] (setting [16]) was determined as 0.5 µg/mL; in the experiment with C. glabrata ATCC 90030 [2] (setting [17]), 2 µg/mL; with C. krusei ATCC 14243 [3] (setting [18]) it was 0.5 µg/mL; in experiment [4] (setting [19]), 0.5 µg/mL; with C. tropicalis ATCC 750 (setting [20]), 0.25 µg/mL. Further, the MEC in the experiment with A. flavus ATCC MYA-3631 was 0.06 µg/mL; in the experiment on A. fumigatus ATCC 13073 [5] it was 0.015 µg/mL; with A. fumigatus MYA-3626 [6], 0.06 µg/mL; in the experiment with A. fumigatus MYA-4609 [7] it was 0.03 µg/mL; with A. niger ATCC 16404, 0.25 µg/mL. Moreover, the “% Neutrophil Migration” value in [8] (conc 0.001 μg/mL) is on record as 126.4%; in experiment [8] (conc 0.01 μg/mL), 115.7%; in experiment [8] (conc 0.1 μg/mL) it was 146.0%; in [8] (conc 1 μg/mL), 134.3%; in experiment [8] (conc 10 μg/mL) it was 64.0%.

Take `C[C@@H]1[C@H](O)[C@@H](C)/C=C/C=C/C=C/C=C/C=C/C=C/C=C/[C@H](O[C@@H]2O[C@H](C)[C@@H](O)[C@H](N)[C@@H]2O)C[C@@H]2O[C@](O)(C[C@@H](O)C[C@@H](O)[C@H](O)CC[C@@H](O)C[C@@H](O)CC(=O)O[C@H]1C)C[C@H](O)[C@H]2C(=O)O` [amphotericin B, reference compound]: the MIC against C. albicans ATCC 90028 [9] is 0.12 to 1 µg/mL; in the experiment on C. glabrata ATCC 90030 [10], 0.25 to 1 µg/mL; in the experiment on C. krusei ATCC 14243 [11], 0.25-2 ^ μg/mL; in experiment [12] it was 0.5 to 2 µg/mL; in the experiment on C. albicans ATCC 90028 [1] (setting [16]) it was 0.5 µg/mL (≈ 0.541 µM); in the experiment on C. glabrata ATCC 90030 [2] (setting [17]) it was 1 µg/mL (≈ 1.08 µM). Further, the MIC (with C. krusei ATCC 14243 [3] (setting [18]); in experiment [4] (setting [19]); with C. tropicalis ATCC 750 (setting [20])) was 1 µg/mL (≈ 1.08 µM) in each case. The MEC with A. flavus MX 5948 is 0.5 to 2 µg/mL; with A. fumigatus ATCC 13073 [13], 0.5 to 4 µg/mL; in the experiment on A. fumigatus MX 5944, 0.5-2^ μg/mL; in the experiment on A. fumigatus MYA-3626 [14], 0.5 to 2 µg/mL; in the experiment on A. fumigatus MYA-4609 [15] it was 0.5 to 4 µg/mL; in the experiment on A. flavus ATCC MYA-3631, 1 µg/mL. The MEC came out at 0.25 µg/mL with A. fumigatus ATCC 13073 [5], 0.25 µg/mL in the experiment on A. fumigatus MYA-3626 [6], 1 µg/mL in the experiment on A. fumigatus MYA-4609 [7] and 0.5 µg/mL in the experiment with A. niger ATCC 16404.
